Key:
[1] = molecular target: T1, MTHFD2 recombinant human enzyme (Homo sapiens, UniProt P13995); experiment: MTHFD2 inhibition assay (NAD(P)H-Glo luminescence); settings: for MTHFD1/MTHFD2 IC50 ratio: selectivity of MTHFD2 inhibition over MTHFD1, band
T1 sequence (P13995 36-350): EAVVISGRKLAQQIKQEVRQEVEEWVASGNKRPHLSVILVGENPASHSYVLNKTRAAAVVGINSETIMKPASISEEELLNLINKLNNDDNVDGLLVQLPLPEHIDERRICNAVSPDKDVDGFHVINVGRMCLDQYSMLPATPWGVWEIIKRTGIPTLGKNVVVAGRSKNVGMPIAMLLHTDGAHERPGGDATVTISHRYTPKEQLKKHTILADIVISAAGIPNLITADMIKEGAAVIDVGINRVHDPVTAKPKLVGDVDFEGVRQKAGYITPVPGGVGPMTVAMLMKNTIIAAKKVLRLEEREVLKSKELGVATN

[2] = molecular target: T2, MTHFD1 recombinant human enzyme (Homo sapiens, UniProt P11586); experiment: MTHFD1 inhibition assay (NAD(P)H-Glo luminescence); settings: MTHFD1 IC50, recombinant human enzyme 200 nM, NADP, band
T2 sequence (P11586 2-291 limits assumed): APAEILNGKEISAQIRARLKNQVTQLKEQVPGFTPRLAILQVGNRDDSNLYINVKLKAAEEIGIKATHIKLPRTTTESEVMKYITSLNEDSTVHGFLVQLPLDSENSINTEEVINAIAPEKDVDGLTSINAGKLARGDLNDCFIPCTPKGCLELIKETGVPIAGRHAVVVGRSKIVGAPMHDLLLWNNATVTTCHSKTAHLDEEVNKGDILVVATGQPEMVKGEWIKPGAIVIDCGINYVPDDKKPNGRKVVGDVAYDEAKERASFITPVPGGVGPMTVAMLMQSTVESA

human CD4+ T cells = experiment: Human CD4+ T-cell proliferation assay (CFSE, CD3/28 beads); settings: read-out: Proliferation IC50

Row | SMILES | IC50 [1] [nM] | MTHFD1/MTHFD2 IC50 ratio [1] | IC50 [2] [nM] | IC50 (human CD4+ T cells) [nM]
1 | [2H]C([2H])([2H])Oc1cc(C(=O)N2CCc3c(c(=O)oc4c(C)c(N5CCN(C)[C@@H](COC)C5)cc(C)c34)C2)c(F)cc1C(=O)NS(=O)(=O)N1C2CCC1CC2 [Example 250, (R)-N-((7-azabicyclo[2.2.1]heptan-7-yl)sulfonyl)-5-fluoro-2-(methoxy-d3)-4-(8-(3-(methoxymethyl)-4-methylpiperazin-1-yl)-7,10-dimethyl-5-oxo-1,3,4,5-tetrahydro-2H-chromeno[3,4-c]pyridine-3-carbonyl)benzamide] | 1 to 10 | J (>30) | 1000 to 5000 | 30 to 100
2 | COC[C@H]1CN(c2cc(C)c3c4c(c(=O)oc3c2C)CN(C(=O)c2ccc(C(=O)NS(=O)(=O)N(C)C3CCCC3)cc2F)CC4)CCN1C [Example 199, (R)-N-(N-cyclopentyl-N-methylsulfamoyl)-3-fluoro-4-(8-(3-(methoxymethyl)-4-methylpiperazin-1-yl)-7,10-dimethyl-5-oxo-1,3,4,5-tetrahydro-2H-chromeno[3,4-c]pyridine-3-carbonyl)benzamide] | 100 to 1000 | H (>9.0 to 30) | 1000 to 5000 | 100 to 1000
3 | CCOc1cc(C(=O)N2CCc3c(c(=O)oc4c(C)c(N5CCN(C)[C@@H](COC)C5)cc(C)c34)C2)c(F)cc1C(=O)NS(=O)(=O)N(C1CC1)C1CC1 [Example 216, (R)-N-(N,N-dicyclopropylsulfamoyl)-2-ethoxy-5-fluoro-4-(8-(3-(methoxymethyl)-4-methylpiperazin-1-yl)-7,10-dimethyl-5-oxo-1,3,4,5-tetrahydro-2H-chromeno[3,4-c]pyridine-3-carbonyl)benzamide] | 10 to 100 | G (^ 3 to 9.0) | 100 to 1000 | 10 to 30
4 | COC[C@H]1CN(c2cc(C)c3c4c(c(=O)oc3c2C)CN(C(=O)c2cc(N(C)C)c(C(=O)NS(=O)(=O)N3C[C@@H]5C[C@H]3CO5)cc2F)CC4)CCN1C [Example 313, N-(((1S,4S)-2-oxa-5-azabicyclo[2.2.1]heptan-5-yl)sulfonyl)-2-(dimethylamino)-5-fluoro-4-(8-((R)-3-(methoxymethyl)-4-methylpiperazin-1-yl)-7,10-dimethyl-5-oxo-1,3,4,5-tetrahydro-2H-chromeno[3,4-c]pyridine-3-carbonyl)benzamide] | 1 to 10 | J (>30) | 100 to 1000 | 30 to 100

The next lines start with results.

Row | IC50 [1] [nM] | MTHFD1/MTHFD2 IC50 ratio [1] | IC50 [2] [nM] | SMILES | IC50 (human CD4+ T cells) [nM]
5 | 1 to 10 | F (<3) | 1 to 10 | CCOc1c(C(=O)N2CCc3c(c(=O)oc4c(C)c(N5CCN(C)[C@@H](COC)C5)cc(C)c34)C2)ccc(C(=O)NS(=O)(=O)N2CCCC2)c1F [Example 223, (R)-3-ethoxy-2-fluoro-4-(8-(3-(methoxymethyl)-4-methylpiperazin-1-yl)-7,10-dimethyl-5-oxo-1,3,4,5-tetrahydro-2H-chromeno[3,4-c]pyridine-3-carbonyl)-N-(pyrrolidin-1-ylsulfonyl)benzamide] | 1 to 10
6 | 1 to 10 | J (>30) | 100 to 1000 | COC[C@H]1CN(c2cc(Cl)c3c4c(c(=O)oc3c2C)CN(C(=O)c2cc(OC)c(C(=O)NS(=O)(=O)N3CC5CC5C3)cc2F)CC4)CCN1C (stereo partly drawn) [Example 325, N-((3-azabicyclo[3.1.0]hexan-3-yl)sulfonyl)-4-(10-chloro-8-((R)-3-(methoxymethyl)-4-methylpiperazin-1-yl)-7-methyl-5-oxo-1,3,4,5-tetrahydro-2H-chromeno[3,4-c]pyridine-3-carbonyl)-5-fluoro-2-methoxybenzamide] | 100 to 1000
7 | 1 to 10 | J (>30) | 100 to 1000 | COC[C@H]1CN(c2cc(C)c3c4c(c(=O)oc3c2C)CN(C(=O)c2cc(OC)c(C(=O)NS(=O)(=O)N3CC5CC5C3)cc2F)CC4)CCN1C (stereo partly drawn) [Example 249, N-((3-azabicyclo[3.1.0]hexan-3-yl)sulfonyl)-5-fluoro-2-methoxy-4-(8-((R)-3-(methoxymethyl)-4-methylpiperazin-1-yl)-7,10-dimethyl-5-oxo-1,3,4,5-tetrahydro-2H-chromeno[3,4-c]pyridine-3-carbonyl)benzamide] | 30 to 100

From patent US12662489B2 (Sitryx Therapeutics Limited, priority 2023, dated 2026)
